Holding throughout (type): cell-based, human
One test has as its system BT474 cells. As to the kind of experiment: Inhibition of proliferation of BT474 cells (CCK-8). As to conditions: for IC50: Homo sapiens, BT-474, 144 h, 6 days, CCK-8. The method, then: • BT474 cell line (Cell Bank of Chinese Academy of Sciences, TCHu143) • FBS (Gibco, Cat. No. 10099-141) • 0.01M PBS (Biosharp, Cat. No. 162262) • RIPM1640 (Hyclone, Cat. No. 308090.01) • Penicillin-Streptomycin (Hyclone, Cat. No. SV30010) • Cell counting kit-8 (Signalway Antibody, Cat. No. CP002) • DMSO (Sigma, Cat. No. D5879) • Centrifuge Tube, 15 ml (Excell Bio, Cat. No. CS015-0001) • Cell Culture Dish (Excell Bio, Cat. No. CS016-0128) • 96-well cell culture cluster (Corning, Cat. No. 3599) 3. Experimental Method
1) BT474 cells were subcultured in cell culture media, and the cells in good growth condition were seeded in a 96-well plate, 80 μL for each well, thus the number of cells per well was 1500, then the plate was cultured overnight in a 37° C., 5% CO2 cell incubator.
(§1) 2) The drug was prepared with dimethyl sulfoxide (DMSO) as a 10 mM stock solution. Prior to use, the solution was diluted 3 times with DMSO, and then diluted with a 3-fold gradient to obtain 9 concentration gradients. Then, each concentration of the compound was further diluted 200 times with the culture media (to ensure that DMSO concentration in the culture system was 0.1%), 2 repeat wells for each concentration. The diluted solution of each compound (20 μL) was added to the cell culture well (with a final concentration of 10 μM, 3.3 μM, 1.1 and shaken gently for mixing. In addition, three negative control wells containing only cells and three blank control wells containing only culture medium (20 μL DMSO diluted 200 times with culture medium being added to six wells) were included.
(§2) (1) After culturing for 6 days, 10 μL CCK-8 was added to each well and cultured for additional 2.5 h in a 37° C., 5% CO2 cell incubator.
(§3) (2) The absorbance (OD value) at 450 nm was measured with a multifunctional microplate reader.
(§4) (3) The data was analyzed by the Dose-response-inhibition equation in the software GraphPad Prism6, and the IC50 value was obtained.

The test system of a further test is MCF-7 cells. The test can be described thus: Inhibition of proliferation of MCF-7 cells (CCK-8). As to conditions: for IC50: Homo sapiens, MCF7, 144 h, 6 days, CCK-8. The method, then:
• MCF-7 cell line (Cell Bank of Chinese Academy of Sciences, TCHu74) • FBS (Gibco, Cat. No. 10099-141) • 0.01M PBS (Biosharp, Cat. No. 162262) • RIPM1640 (Hyclone, Cat. No. 308090.01) • Penicillin-Streptomycin (Hyclone, Cat. No. SV30010) • Cell counting kit-8 (Signalway Antibody, Cat. No. CP002) • DMSO (Sigma, Cat. No. D5879) • Centrifuge Tube, 15 ml (Excell Bio, Cat. No. CS015-0001) • Cell Culture Dish, (Excell Bio, Cat. No. CS016-0128) • 96-well cell culture cluster (Corning, Cat. No. 3599) 3. Experimental Method
1) MCF-7 cells were subcultured in cell culture media, and the cells in good growth condition were seeded in a 96-well plate, 80 μL for each well, thus the number of cells per well was 1000, then the plate was cultured overnight in a 37° C., 5% CO2 cell incubator.
2) The drug was prepared with dimethyl sulfoxide (DMSO) as a 10 mM stock solution. Prior to use, the solution was diluted 3 times with DMSO, and then diluted with a 3-fold gradient to obtain 9 concentration gradients. Then, each concentration of the compound was further diluted 200 times with the culture media (to ensure that DMSO concentration in the culture system was 0.1%), 2 repeat wells for each concentration. The diluted solution of each compound (20 μL) was added to the cell culture well (with a final concentration of 10 μM, 3.3 μM, 1.1 μM . . . ), and shaken gently for mixing.
In addition, three negative control wells containing only cells and three blank control wells containing only culture medium (20 μL DMSO diluted 200 times with culture medium being added to six wells) were included.
as §2, §3, §4

For a further test, the system named is MDA-MB-231 cells. As to the kind of experiment: Inhibition of proliferation of MDA-MB-231 cells (CCK-8). To be noted: for IC50: Homo sapiens, 144 h, 6 days, CCK-8. On the procedure: • MDA-MB-231 cell line (Cell Bank of Chinese Academy of Sciences, TCHu104) • FBS (Gibco, Cat. No. 10099-141) • 0.01M PBS (Biosharp, Cat. No. 162262) • RIPM1640 (Hyclone, Cat. No. 308090.01) • Penicillin-Streptomycin (Hyclone, Cat. No. SV30010) • Cell counting kit-8 (Signalway Antibody, Cat. No. CP002) • DMSO (Sigma, Cat. No. D5879) • Centrifuge Tube, 15 ml (Excell Bio, Cat. No. CS015-0001) • Cell Culture Dish, (Excell Bio, Cat. No. CS016-0128) • 96-well cell culture cluster (Corning, Cat. No. 3599) 3. Experimental Method
1) MDA-MB-231 cells were subcultured in cell culture media, and the cells in good growth condition were seeded in a 96-well plate, 80 μL for each well, thus the number of cells per well was 1500, then the plate was cultured overnight in a 37° C., 5% CO2 cell incubator.
as §1, with “1.1 μM . . . ),” for “1.1”
as §2, §3, §4

The subject of a further test is Vcap cells. As to the kind of experiment: Inhibition of proliferation of Vcap cells (CCK-8). To be noted: for IC50: Homo sapiens, 144 h, 6 days, CCK-8. The method, then:
• Vcap cell line (Cell Bank of Chinese Academy of Sciences, TCHu220) • FBS (Gibco, Cat. No. 10099-141) • 0.01M PBS (Biosharp, Cat. No. 162262) • DMEM HIGH Glucose (Hyclone, Cat. No. SH30243.01) • Penicillin-Streptomycin (Hyclone, Cat. No. SV30010) • Cell counting kit-8 (Signalway Antibody, Cat. No. CP002) • DMSO (Sigma, Cat. No. D5879) • Centrifuge Tube, 15 ml (Excell Bio, Cat. No. CS015-0001) • Cell Culture Dish, (Excell Bio, Cat. No. CS016-0128) • 96-well cell culture cluster (Corning, Cat. No. 3599) 2. Experimental Method
1) Vcap cells were subcultured in cell culture media, and the cells in good growth condition were seeded in a 96-well plate, 80 μL for each well, thus the number of cells per well was 10000, then the plate was cultured overnight in a 37° C., 5% CO2 cell incubator.
as §1, with “1.1 μM . . . ),” for “1.1”
as §2, §3, §4

For the compound `[2H]C([2H])([2H])n1cc(-c2cc(NS(=O)(=O)CC)ccc2N2CCC3(CC2)CC3)c2cc[nH]c2c1=O` [Compound 41], the IC50 stood at 330 nM in the test on BT474 cells, 54 nM with MCF-7 cells and 7540 nM in the test with MDA-MB-231 cells.
On to `[2H]C([2H])([2H])n1cc(-c2cc(S(=O)(=O)CC)ccc2N2CCC3(CC3)C2)c2cc[nH]c2c1=O` [Compound 55, 4-(5(ethylsulfonyl)-2-(5-aza-spiro[2.4]heptan-5-yl)phenyl)-6-trideuteromethyl-1H-pyrrolo[2,3-c]pyridin-7(6H)-one], for which, in the test on BT474 cells, the “inhibitory action on BT474 cells (in words)” value was “effective inhibitory action”. The IC50 in the test with BT474 cells came to 130 nM; in the test on MCF-7 cells, 100 nM; in the test on MDA-MB-231 cells it was 749 nM.
For `[2H]C([2H])([2H])n1cc(-c2cc(S(C)(=O)=O)ccc2N2CCC3(CC2)CC3(F)F)c2cc[nH]c2c1=O` [Compound 184, 4-(2-(1,1-difluoro-6-aza-spiro[2.5]octan-6-yl)-5-(methylsulfonyl)phenyl)-6-trideuteromethyl-1H-pyrrolo[2,3-c]pyridin-7(6H)-one], in the test on MCF-7 cells, the “inhibitory action on MCF-7 cells (in words)” value is “effective inhibitory action” and the IC50 turned out to be 14 nM. Moreover, in the test on MDA-MB-231 cells, the “inhibitory action on MDA-MB-231 cells (in words)” value is listed as “effective inhibitory action” and the IC50 was determined as 26 nM. Besides, in the test on Vcap cells, the “inhibitory action on Vcap cells (in words)” value was “effective inhibitory action” and the IC50 amounted to 15 nM.
For the compound `[2H]C([2H])([2H])n1cc(-c2cc(S(C)(=O)=O)c(F)cc2N2CCC3(CC2)CC3(F)F)c2cc[nH]c2c1=O` [Compound 219, 4-(2-(1,1-difluoro-6-aza-spiro[2.5]octan-6-yl)-4-fluoro-5-(methylsulfonyl)phenyl)-6-trideuteromethyl-1H-pyrrolo[2,3-c]pyridin-7(6H)-one], in the test on Vcap cells, the “inhibitory action on Vcap cells (in words)” value was “effective inhibitory action” and the IC50 amounted to 17.6 nM.

Broadly, the IC50 is the concentration that inhibits the measured activity by half. Higher therefore signals weaker potency.
